# How the values were obtained:
# Format in all cases: cell-based, human
# [1] = test system: occludin; test: Expression of occludin in NHEK, in situ immunofluorescence; conditions: 144 hours
# Method: (§1) The effects of the Aureobasidium pullulans extract and C-β-D-xylopyranoside-2-hydroxypropane (C-Xyloside, Pro-Xylane™) and a combination thereof were evaluated on normal human epidermal keratinocytes (NHEK) by analysing the expression of markers by in situ immunofluorescence labelling and image analysis: • expression of the differentiation markers: Transglutaminase K (TGK), filaggrin and involucrin, • expression of the tight junction proteins: claudin-1, zonula occludens-1 (ZO-1) and occludin,
# (§2) The compounds were tested at a non-cytotoxic concentration. • Normal human keratinocytes: NHEK, Bioalternatives reference K341 used at third passage. • Culture conditions: 37° C., 5% CO2 • Culture medium: Keratinocyte SFM (serum free medium) supplemented with Epidermal Growth Factor Pituitary extract • Test medium: Keratinocyte SFM (serum free medium)
# The keratinocytes were seeded in 96-well plates and cultured in culture medium for 24 hours. […]
# (§3) The labelling was quantified by measuring the fluorescence intensity and normalizing the fluorescence intensity relative to the total number of cells (Digital data integration with Developer Toolbox 1.5 software, GE Healthcare).
# [2] = test system: zonula occludens-1 (ZO-1); test: Expression of ZO-1 in NHEK, in situ immunofluorescence; conditions: 72 hours
# Method: as §1, §2
# (§4) The keratinocytes were seeded in 96-well plates and cultured in culture medium for 24 hours. The medium was then replaced with a test medium containing or not containing (control) the test compounds, the combination or the reference compound and the cells were incubated for 72 hours.
# (§5) The cells were rinsed with PBS solution, fixed and permeabilized. The cells were then labelled using a specific primary antibody (Table 13).
# (§6) Image acquisition (five photos/well) was performed using an INCell Analyzer™ 2200 (GE Healthcare, x20 objective).
# as §3
# [3] = test system: claudin-1; test: Expression of claudin-1 in NHEK, in situ immunofluorescence; conditions: 72 hours
# Method: as §1, §2, §4, §5, §6, §3
# [4] = test system: involucrin; test: Expression of involucrin in NHEK, in situ immunofluorescence; conditions: 144 hours
# Method: as §1, §2
# as §4, with “incubated for 144 hours with a repeat treatment after 72 hours.” for “incubated for 72 hours.”
# as §5, §6, §3
# [5] = test system: filaggrin; test: Expression of filaggrin in NHEK, in situ immunofluorescence; conditions: 72 hours
# Method: as §1, §2
# The keratinocytes were seeded in a 96-well plate and grown in culture medium for 192 hours with renewal of the culture medium after 24 and 96 hours. The medium was then replaced with a test medium containing or not containing (control) the test compounds, the combination or the reference compound and the cells were incubated for 72 hours.
# as §5, §6, §3
# [6] = test system: Transglutaminase K (TGK); test: Expression of TGK in NHEK, in situ immunofluorescence; conditions: 72 hours
# Method: as §1, §2, §4, §5, §6, §3
# [7] = test system: Collagen IV; test: Expression of collagen IV in NHEK, in situ immunofluorescence; conditions: 72 hours
# Method: as §1
# The compounds were tested at a non-cytotoxic concentration. • Normal human keratinocytes: NHEK, Bioalternatives reference K341 used at third passage. • Culture conditions: 37° C., 5% CO2 • Culture medium: Keratinocyte SFM (serum free medium) supplemented with Epidermal Growth Factor Pituitary extract • Test medium: Keratinocyte SFM (serum free medium) […]
# as §3
# [8] = test system: filaggrin; test: Filaggrin synthesis by immunohistofluorescence in reconstructed epidermis
# Method: (§7) Human keratinocytes were seeded onto inserts and then incubated at 37° C. in an atmosphere containing 5% CO2. Between the second and ninth day of incubation, the culture medium was changed every two days. […] On day 17, the reconstructed skins were then recovered and processed in different ways depending on the analysis test performed, namely: • for immunohistofluorescence analysis, the reconstructed skins were recovered, fixed, dehydrated and embedded in paraffin. 4 μm sections were then produced using a microtome (Leica). • for a QPCR test, the reconstructed skins were recovered and the RNAs were extracted in their entirety. The following primary antibodies were used for this test: • Mouse anti-filaggrin monoclonal antibody • Rabbit anti-loricrin polyclonal antibody • Mouse anti-claudin-1 monoclonal antibody The secondary antibodies used were as follows: • Alexa Fluor® 488-coupled rabbit anti-IgG antibody • Alexa Fluor® 488-coupled mouse anti-IgG antibody Visualization was performed using an IX 70 microscope (Olympus) coupled to an image analysis system (NIS-Elements software, Nikon). The content of the various markers synthesized was proportional to the intensity of the green fluorescence present on the reconstructed epidermis samples. Quantification was performed by means of an image analysis script in Python language. The results are expressed in arbitrary units (AU).
# [9] = test system: loricrin; test: Loricrin synthesis by immunohistofluorescence in reconstructed epidermis; conditions: day 9 to day 17, 250 μm
# Method: as §7
# [10] = test system: claudin-1; test: Claudin-1 synthesis by immunohistofluorescence in reconstructed epidermis
# Method: as §7
# [11] = test system: ZO-1; test: Quantitative PCR analysis of ZO-1 expression in reconstructed epidermis; conditions: QPCR, 250 μm, control = 100
# Method: (§8) Human keratinocytes were seeded onto inserts and then incubated at 37° C. in an atmosphere containing 5% CO2. Between the second and ninth day of incubation, the culture medium was changed every two days. […] On day 17, the reconstructed skins were then recovered and processed in different ways depending on the analysis test performed, namely: • for immunohistofluorescence analysis, the reconstructed skins were recovered, fixed, dehydrated and embedded in paraffin. 4 μm sections were then produced using a microtome (Leica). • for a QPCR test, the reconstructed skins were recovered and the RNAs were extracted in their entirety. For this analysis, the RNAs were reverse-transcribed and the complementary DNAs obtained were analysed via a quantitative PCR technique. The mRNAs of the RPS18, GAPDH and GUSB proteins, the reference internal controls, were analysed in parallel with the mRNAs of ZO-1, CK10, involucrin and TGM1. Quantification of fluorescence incorporation (SYBR Green) was measured continuously using a LightCycler LC480 thermal cycler (Roche) and Ct analysis (relative quantification) was performed using the LC480 software (Roche).
# [12] = test system: CK10; test: Quantitative PCR analysis of CK10 expression in reconstructed epidermis; conditions: QPCR, 250 μm, control = 100
# Method: as §8
# [13] = test system: TGM1; test: Quantitative PCR analysis of TGM1 expression in reconstructed epidermis; conditions: QPCR, 250 μm, control = 100
# Method: as §8
# [14] = test system: involucrin; test: Quantitative PCR analysis of involucrin expression in reconstructed epidermis; conditions: QPCR, 250 μm, control = 100
# Method: as §8
molecule,measurement,setting,value
CC(O)C[C@@H]1OC[C@@H](O)[C@H](O)[C@H]1O (stereo partly drawn) [C-β-D-xylopyranoside-2-hydroxypropane],"Expression of occludin, Integration fluo",[1]; 0.3%,78 % of control
same,"Expression of ZO-1, Integration fluo",[2]; 0.03%,111 % of control
same,"Expression of ZO-1, Integration fluo",[2]; 0.1%,124 % of control
same,"Expression of ZO-1, Integration fluo",[2]; 0.3%,127 % of control
same,"Expression of Claudin-1, Integration fluo",[3]; 0.03%,184 % of control
same,"Expression of Claudin-1, Integration fluo",[3]; 0.1%,204 % of control
same,"Expression of Involucrin, Integration fluo",[4]; 0.1%,109 % of control
same,"Expression of Involucrin, Integration fluo",[4]; 0.3%,110 % of control
same,"Expression of Filaggrin, Integration fluo",[5]; 0.1%,114 % of control
same,"Expression of Filaggrin, Integration fluo",[5]; 0.3%,127 % of control
same,"Expression of TGK, Integration fluo",[6]; 0.03%,124 % of control
same,"Expression of TGK, Integration fluo",[6]; 0.1%,158 % of control
same,"Expression of TGK, Integration fluo",[6]; 0.3%,235 % of control
same,"Expression of Collagen IV, Integration fluo",[7]; 0.3%,120 % of control
[Ca+2].[Cl-].[Cl-] [CaCl2],"Expression of occludin, Integration fluo",[1]; 1.5 mM,296 % of control
same,"Expression of ZO-1, Integration fluo",[2]; 1.5 mM,119 % of control
same,"Expression of Claudin-1, Integration fluo",[3]; 1.5 mM,200 % of control
same,"Expression of Involucrin, Integration fluo",[4]; 1.5 mM,126 % of control
same,"Expression of Filaggrin, Integration fluo",[5]; 1.5 mM,159 % of control
same,"Expression of TGK, Integration fluo",[6]; 1.5 mM,903 % of control
NC(=O)c1cccnc1 [Niacinamide],"Efficacy/control (%), filaggrin",[8]; 250 μm,+42%
same,Synthesis of filaggrin,"[8]; day 9 to day 17, 250 μm",941 × 10^3 AU
same,Synthesis of loricin,[9],214 × 10^3 AU
same,"Efficacy/control (%), claudin-1",[10]; 250 μm,+10%
same,Synthesis of claudin-1,"[10]; day 9 to day 17, 250 μm",266 × 10^3 AU
same,Expression of ZO-1 (%),[11],91%
same,Expression of CK10 (%),[12],100%
same,Expression of TGMI (%),[13],86%
same,Expression of involucrin (%),[14],78%
"TGF-β: positive control for expression of the marker Collagen IV, R&D Systems ref. 240-B","Expression of Collagen IV, Integration fluo",[7]; 10 ng/ml,176 % of control

# Reference: patent US20260199223A1, “USE OF AN AUREOBASIDIUM PULLULANS EXTRACT ALONE OR IN COMBINATION WITH A C-GLYCOSIDE AS A COSMETIC ACTIVE PRINCIPLE” (L'OREAL, priority 2022, published 2026)
